Target: H1047R PIK3CA enzyme (Homo sapiens, UniProt P42336, H1047R)
Experiment: ADP-Glo Biochemical PIK3CA Kinase Assay

H1047R PIK3CA enzyme, sequence (P42336 whole entry H1047R): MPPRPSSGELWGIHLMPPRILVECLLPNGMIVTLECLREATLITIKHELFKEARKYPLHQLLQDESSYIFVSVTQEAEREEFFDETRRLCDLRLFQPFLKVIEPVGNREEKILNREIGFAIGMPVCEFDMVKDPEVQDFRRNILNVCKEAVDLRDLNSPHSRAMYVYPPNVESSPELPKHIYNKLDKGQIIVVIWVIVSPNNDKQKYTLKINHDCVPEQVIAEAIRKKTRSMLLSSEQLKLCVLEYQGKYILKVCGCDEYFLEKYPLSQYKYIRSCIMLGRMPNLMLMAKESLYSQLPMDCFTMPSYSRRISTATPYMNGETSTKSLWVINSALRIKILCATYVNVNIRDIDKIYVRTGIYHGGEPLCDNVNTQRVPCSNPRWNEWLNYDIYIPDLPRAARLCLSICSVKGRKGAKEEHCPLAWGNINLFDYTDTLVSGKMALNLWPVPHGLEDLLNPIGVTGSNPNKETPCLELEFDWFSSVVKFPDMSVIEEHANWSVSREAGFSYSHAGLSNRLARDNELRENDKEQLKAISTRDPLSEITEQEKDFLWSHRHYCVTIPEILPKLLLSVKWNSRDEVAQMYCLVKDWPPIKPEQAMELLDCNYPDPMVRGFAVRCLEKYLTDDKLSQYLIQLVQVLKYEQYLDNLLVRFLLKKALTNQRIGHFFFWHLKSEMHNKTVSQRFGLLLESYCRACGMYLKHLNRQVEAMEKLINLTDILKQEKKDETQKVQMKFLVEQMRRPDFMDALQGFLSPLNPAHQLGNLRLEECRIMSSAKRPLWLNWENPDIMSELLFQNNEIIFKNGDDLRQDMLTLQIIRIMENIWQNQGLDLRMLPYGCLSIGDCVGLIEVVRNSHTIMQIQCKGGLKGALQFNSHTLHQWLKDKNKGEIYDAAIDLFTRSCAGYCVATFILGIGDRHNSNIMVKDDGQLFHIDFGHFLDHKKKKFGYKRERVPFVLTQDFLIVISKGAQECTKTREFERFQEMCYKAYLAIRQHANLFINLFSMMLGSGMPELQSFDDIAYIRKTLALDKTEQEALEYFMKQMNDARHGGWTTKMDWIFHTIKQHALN
H1047R PIK3CA enzyme, sequence (P27986 whole entry partner): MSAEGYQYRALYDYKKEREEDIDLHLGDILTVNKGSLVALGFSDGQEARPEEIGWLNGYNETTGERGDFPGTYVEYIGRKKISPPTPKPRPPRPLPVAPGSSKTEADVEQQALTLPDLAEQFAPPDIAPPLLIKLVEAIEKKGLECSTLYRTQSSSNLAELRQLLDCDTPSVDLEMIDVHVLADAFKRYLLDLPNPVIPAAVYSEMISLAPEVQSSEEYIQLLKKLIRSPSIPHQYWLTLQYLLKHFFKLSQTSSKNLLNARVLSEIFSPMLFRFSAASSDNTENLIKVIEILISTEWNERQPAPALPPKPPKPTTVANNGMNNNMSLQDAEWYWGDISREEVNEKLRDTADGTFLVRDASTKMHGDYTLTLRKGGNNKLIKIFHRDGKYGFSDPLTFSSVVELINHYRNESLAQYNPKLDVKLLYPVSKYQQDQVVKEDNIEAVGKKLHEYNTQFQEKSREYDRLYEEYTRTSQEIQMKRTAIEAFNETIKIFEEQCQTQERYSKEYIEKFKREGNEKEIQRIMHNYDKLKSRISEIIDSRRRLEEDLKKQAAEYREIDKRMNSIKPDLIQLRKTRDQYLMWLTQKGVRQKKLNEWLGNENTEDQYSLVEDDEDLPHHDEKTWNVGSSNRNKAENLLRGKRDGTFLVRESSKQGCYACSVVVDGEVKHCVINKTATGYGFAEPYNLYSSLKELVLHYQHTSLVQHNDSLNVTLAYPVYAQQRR

Row | Compound | IC50
1 | O=C(Nc1cc(-c2ccc3ncnn3c2)nc2c1C(C1CCOCC1)NC2=O)c1cc(F)cc(C(F)(F)F)c1 (centres unmarked) [Compound I-1705] | 10 to 100 µM
2 | O=C(Nc1cc(-c2ccc3ncnn3c2)nc2c1C(C1CCCCO1)NC2=O)c1cc(F)cc(C(F)(F)F)c1 (centres unmarked) [Compound I-1706] | 10 to 100 µM
3 | N#Cc1nc2ccc(-c3cc(NC(=O)c4cc(F)cc(C(F)(F)F)c4)c4c(c3)C(=O)NC4c3cc(F)ccc3Cl)cn2n1 (centres unmarked) [Compound I-1707] | ≤ 0.1 µM
4 | N#Cc1nnc2ccc(-c3cc(NC(=O)c4cc(F)cc(C(F)(F)F)c4)c4c(c3)C(=O)NC4c3cc(F)ccc3Cl)cn12 (centres unmarked) [Compound I-1708] | ≤ 0.1 µM
5 | O=C1NC(c2cc(F)ccc2Cl)c2c1cccc2-n1[nH]c(=O)c2ccccc21 (centres unmarked) [Compound I-1714] | 10 to 100 µM
6 | O=C1NC(c2cc(F)ccc2Cl)c2c(NC(=O)N3CCc4ccc(F)cc43)cc(Br)cc21 (centres unmarked) [Compound I-1717] | ≤ 0.1 µM
7 | O=C1NC(c2cc(F)ccc2Cl)c2c(NC(=O)N3CCC(O)C3)cc(-c3ccc4ncnn4c3)cc21 (centres unmarked) [Compound I-1718] | 10 to 100 µM
8 | N#Cc1cn(Cc2cc(NC(=O)c3cc(F)cc(C(F)(F)F)c3)c3c(c2)C(=O)NC3c2cc(F)ccc2Cl)cn1 (centres unmarked) [Compound I-1719] | ≤ 0.1 µM
9 | O=C1NC(c2cc(F)ccc2Cl)c2c(NC(=O)N3CCCC3)cc(-c3ccc4ncnn4c3)cc21 (centres unmarked) [Compound I-1720] | 10 to 100 µM
10 | O=C1NC(c2cc(F)ccc2Cl)c2c(NC(=O)N3CCCC(O)C3)cc(-c3ccc4ncnn4c3)cc21 (centres unmarked) [Compound I-1721] | 10 to 100 µM
11 | O=C1NC(c2cc(F)ccc2Cl)c2c(NC(=O)N3CCC4(C3)CC4(F)F)cc(-c3ccc4ncnn4c3)cc21 (centres unmarked) [Compound I-1722] | 1 to 10 µM
12 | O=C1NC(c2cc(F)ccc2Cl)c2c(NC(=O)C3CCCC(O)C3)cc(-c3ccc4ncnn4c3)cc21 (centres unmarked) [Compound I-1723] | 10 to 100 µM
13 | O=C1NC(c2cc(F)ccc2Cl)c2c(NC(=O)C(O)c3ccccc3)cc(-c3ccc4ncnn4c3)cc21 (centres unmarked) [Compound I-1724] | 10 to 100 µM
14 | O=C1NC(c2cc(F)ccc2Cl)c2c(Nc3ccc4ccccc4c3)cc(Br)cc21 (centres unmarked) [Compound I-1725] | 1 to 10 µM
15 | O=C1NC(c2cc(F)ccc2Cl)c2c(NCC3CCCCC3)cc(Br)cc21 (centres unmarked) [Compound I-1726] | 10 to 100 µM
16 | O=C1NC(c2cc(F)ccc2Cl)c2c(Nc3nc4ccccc4[nH]3)cc(-c3ccc4ncnn4c3)cc21 (centres unmarked) [Compound I-1727] | 1 to 10 µM
17 | O=C1NC(c2cc(F)ccc2Cl)c2c(CS(=O)(=O)c3ccccc3)cc(-c3ccc4ncnn4c3)cc21 (centres unmarked) [Compound I-1728] | 10 to 100 µM
18 | O=C1NC(c2cc(F)ccc2Cl)c2c1cc(-c1ccc3ncnn3c1)cc2-c1ccc2ccccc2c1 (centres unmarked) [Compound I-1729] | 1 to 10 µM
19 | O=C(Nc1cc(-c2ccc3ncnn3c2)cc2c1C(c1cc(F)ccc1Cl)NC2=O)C(=O)c1ccccc1 (centres unmarked) [Compound I-1730] | 1 to 10 µM
20 | O=C(Nc1cccc2c1C(C1CCC1)NC2=O)c1cc(F)cc(C(F)(F)F)c1 (centres unmarked) [Compound I-1731] | 10 to 100 µM
21 | O=C(Nc1cccc2c1C(CC1CCCCC1)NC2=O)c1cc(F)cc(C(F)(F)F)c1 (centres unmarked) [Compound I-1732] | 1 to 10 µM
22 | O=C(Nc1cc(-c2ccc3nnc(Cl)n3c2)cc2c1[C@H](c1cc(F)ccc1Cl)NC2=O)c1cc(F)cc(C(F)(F)F)c1 [Compound I-1734] | ≤ 0.1 µM
23 | O=C(Nc1cc(OCc2cncnc2)cc2c1C(c1cc(F)ccc1Cl)NC2=O)c1cc(F)cc(C(F)(F)F)c1 (centres unmarked) [Compound I-1735] | ≤ 0.1 µM

Row | Compound | IC50
24 | Nc1ccc(COc2cc(NC(=O)c3cc(F)cc(C(F)(F)F)c3)c3c(c2)C(=O)NC3c2cc(F)ccc2Cl)cn1 (centres unmarked) [Compound I-1736] | ≤ 0.1 µM
25 | Cn1cc(-c2cc(NC(=O)c3cc(F)cc(C(F)(F)F)c3)c3c(c2)C(=O)N[C@@H]3c2cc(F)ccc2Cl)c(C#N)n1 [Compound I-1737] | 10 to 100 µM
26 | Cn1cc(-c2cc(NC(=O)c3cc(F)cc(C(F)(F)F)c3)c3c(c2)C(=O)N[C@H]3c2cc(F)ccc2Cl)c(C#N)n1 [Compound I-1738] | ≤ 0.1 µM
27 | N#Cc1nc2cc(-c3cc(NC(=O)c4cc(F)cc(C(F)(F)F)c4)c4c(c3)C(=O)NC4c3cc(F)ccc3Cl)ccn2n1 (centres unmarked) [Compound I-1741] | ≤ 0.1 µM
28 | O=C1NC(c2cc(F)ccc2Cl)c2c1cc(-c1ccc3ncnn3c1)cc2S(=O)(=O)Cc1ccccc1 (centres unmarked) [Compound I-1742] | 1 to 10 µM
29 | CC(=O)N1CCCC(C(=O)Nc2cc(-c3ccc4ncnn4c3)cc3c2C(c2cc(F)ccc2Cl)NC3=O)C1 (centres unmarked) [Compound I-1743] | 10 to 100 µM
30 | CC(=O)N1CCC(C(=O)Nc2cc(-c3ccc4ncnn4c3)cc3c2C(c2cc(F)ccc2Cl)NC3=O)CC1 (centres unmarked) [Compound I-1744] | 10 to 100 µM
31 | O=C(Nc1cc(Br)cc2c1C(c1cc(F)ccc1Cl)NC2=O)c1cc(F)cc(CC(F)F)c1 (centres unmarked) [Compound I-1745] | 1 to 10 µM
32 | O=C1NC(c2cc(F)ccc2Cl)c2c1cccc2N1Cc2ccccc2CC1=O (centres unmarked) [Compound I-1746] | 10 to 100 µM
33 | O=C(Nc1cccc2c1C(C1CCCNC1)NC2=O)c1cc(F)cc(C(F)(F)F)c1 (centres unmarked) [Compound I-1747] | 10 to 100 µM
34 | O=C1NC(c2cc(F)ccc2Cl)c2c(NC(=O)C3CCCC(F)(F)C3)cc(-c3ccc4ncnn4c3)cc21 (centres unmarked) [Compound I-1750] | 1 to 10 µM
35 | O=C1NC(c2cc(F)ccc2Cl)c2c(NC(=O)C3CCNCC3)cc(-c3ccc4ncnn4c3)cc21 (centres unmarked) [Compound I-1751] | 10 to 100 µM
36 | O=C(Nc1cccc2c1[C@H]([C@@H]1CCCC(F)(F)C1)NC2=O)c1cc(F)cc(C(F)(F)F)c1 [Compound I-1752] | 1 to 10 µM
37 | O=C1NC(c2cc(F)ccc2Cl)c2c(NC(=O)N3CC4CC(F)(C4)C3)cc(Br)cc21 (centres unmarked) [Compound I-1753] | 10 to 100 µM
38 | O=C1NC(c2cc(F)ccc2Cl)c2c(NC(=O)N3CC4CCC4(C(F)(F)F)C3)cc(Br)cc21 (centres unmarked) [Compound I-1754] | 1 to 10 µM
39 | O=C(Nc1cc(Br)cc2c1C(c1cc(F)ccc1Cl)NC2=O)NC1(CC(F)(F)F)CC1 (centres unmarked) [Compound I-1755] | 10 to 100 µM
40 | O=C1NC(c2cc(F)ccc2Cl)c2c(NC(=O)N3CCC4C(C3)C4C(F)(F)F)cc(Br)cc21 (centres unmarked) [Compound I-1756] | 1 to 10 µM
41 | CC(C)(CC(=O)Nc1cc(Br)cc2c1C(c1cc(F)ccc1Cl)NC2=O)C(F)(F)F (centres unmarked) [Compound I-1757] | 10 to 100 µM
42 | CN1CCC(C(=O)Nc2cc(-c3ccc4ncnn4c3)cc3c2C(c2cc(F)ccc2Cl)NC3=O)CC1 (centres unmarked) [Compound I-1758] | 10 to 100 µM
43 | NC1CCC(C(=O)Nc2cc(-c3ccc4ncnn4c3)cc3c2C(c2cc(F)ccc2Cl)NC3=O)CC1 (centres unmarked) [Compound I-1759] | 10 to 100 µM
44 | O=C(Nc1cc(-c2ccc3ncnn3c2)cc2c1C(c1cc(F)ccc1Cl)NC2=O)C(=NO)c1ccccc1 (centres unmarked) [Compound I-1760] | 10 to 100 µM
45 | O=C(Nc1cccc2c1C(CN1CCCC1)NC2=O)c1cc(F)cc(C(F)(F)F)c1 (centres unmarked) [Compound I-1761] | 10 to 100 µM
46 | N#Cc1cnn2ccc(-c3cc(NC(=O)c4cc(F)cc(C(F)(F)F)c4)c4c(c3)C(=O)NC4c3cc(F)ccc3Cl)cc12 (centres unmarked) [Compound I-1762] | ≤ 0.1 µM

Row | Compound | IC50
47 | O=C(Nc1cc(-c2ccn3nccc3n2)cc2c1C(c1cc(F)ccc1Cl)NC2=O)c1cc(F)cc(C(F)(F)F)c1 (centres unmarked) [Compound I-1763] | ≤ 0.1 µM
48 | O=C(Nc1cc(-c2ccn3ncnc3c2F)cc2c1[C@@H](c1cc(F)ccc1Cl)NC2=O)c1cc(F)cc(C(F)(F)F)c1 [Compound I-1764] | 1 to 10 µM
49 | O=C(Nc1cc(-c2ccn3ncnc3c2F)cc2c1[C@H](c1cc(F)ccc1Cl)NC2=O)c1cc(F)cc(C(F)(F)F)c1 [Compound I-1765] | ≤ 0.1 µM
50 | CC1(C)CC1C1NC(=O)c2cccc(NC(=O)c3cc(F)cc(C(F)(F)F)c3)c21 (centres unmarked) [Compound I-1766] | 1 to 10 µM
51 | N#Cc1cnc2cnc(-c3cc(NC(=O)c4cc(F)cc(C(F)(F)F)c4)c4c(c3)C(=O)NC4c3cc(F)ccc3Cl)cn12 (centres unmarked) [Compound I-1767] | ≤ 0.1 µM
52 | O=C(Nc1cc(-c2ccc(=O)n(C(F)F)c2)cc2c1C(c1cc(F)ccc1Cl)NC2=O)c1cc(F)cc(C(F)(F)F)c1 (centres unmarked) [Compound I-1768] | ≤ 0.1 µM
53 | O=C(Cc1cc(-c2ccc3ncnn3c2)cc2c1C(c1cc(F)ccc1Cl)NC2=O)c1cc(F)cc(C(F)(F)F)c1 (centres unmarked) [Compound I-1772] | 0.1 to 0.5 µM
54 | O=C(Nc1cc(-c2ccc3ncnn3c2)cc2c1C(c1cc(F)ccc1Cl)NC2=O)c1cc(CO)cc(C(F)(F)F)c1 (centres unmarked) [Compound I-1773] | 10 to 100 µM
55 | NC(=O)c1cc(-c2ccc3ncnn3c2)cc2c1C(c1cc(F)ccc1Cl)NC2=O (centres unmarked) [Compound I-1774] | 1 to 10 µM
56 | O=C1NC(c2cc(F)ccc2Cl)c2ccc(-c3ccc4ncnn4c3)cc21 (centres unmarked) [Compound I-1775] | 10 to 100 µM
57 | CC(O)C1NC(=O)c2cccc(NC(=O)c3cc(F)cc(C(F)(F)F)c3)c21 (centres unmarked) [Compound I-1776] | 1 to 10 µM
58 | O=C(CC1CCC1)Nc1cc(-c2ccc3ncnn3c2)cc2c1C(c1cc(F)ccc1Cl)NC2=O (centres unmarked) [Compound I-1777] | 10 to 100 µM
59 | O=C1NC(c2cc(F)ccc2Cl)c2c(NC(=O)C3CCC3)cc(-c3ccc4ncnn4c3)cc21 (centres unmarked) [Compound I-1778] | 10 to 100 µM
60 | O=C(CC1CC1)Nc1cc(-c2ccc3ncnn3c2)cc2c1C(c1cc(F)ccc1Cl)NC2=O (centres unmarked) [Compound I-1781] | 10 to 100 µM
61 | O=C1NC(c2cc(F)ccc2Cl)c2c(NC(=O)C3CCCC3)cc(-c3ccc4ncnn4c3)cc21 (centres unmarked) [Compound I-1782] | 10 to 100 µM
62 | O=C(CN1CCCC1)Nc1cc(-c2ccc3ncnn3c2)cc2c1C(c1cc(F)ccc1Cl)NC2=O (centres unmarked) [Compound I-1783] | 10 to 100 µM
63 | O=C(O)c1cc(-c2ccc3ncnn3c2)cc2c1C(c1cc(F)ccc1Cl)NC2=O (centres unmarked) [Compound I-1784] | 10 to 100 µM
64 | NC(=O)C(C(=O)Nc1cc(-c2ccc3ncnn3c2)cc2c1C(c1cc(F)ccc1Cl)NC2=O)c1ccccc1 (centres unmarked) [Compound I-1787] | 1 to 10 µM
65 | CN1CCCC(C(=O)Nc2cc(-c3ccc4ncnn4c3)cc3c2C(c2cc(F)ccc2Cl)NC3=O)C1 (centres unmarked) [Compound I-1792] | 1 to 10 µM
66 | O=C(Nc1cc(-c2ccc3ncc(F)n3c2)cc2c1C(c1cc(F)ccc1Cl)NC2=O)c1cc(F)cc(C(F)(F)F)c1 (centres unmarked) [Compound I-1793] | ≤ 0.1 µM
67 | Cn1ncc(-c2cc(NC(=O)c3cc(F)cc(C(F)(F)F)c3)c3c(c2)C(=O)N[C@@H]3c2cc(F)ccc2Cl)c1C#N [Compound I-1794] | 1 to 10 µM
68 | Cn1ncc(-c2cc(NC(=O)c3cc(F)cc(C(F)(F)F)c3)c3c(c2)C(=O)N[C@H]3c2cc(F)ccc2Cl)c1C#N [Compound I-1795] | ≤ 0.1 µM

Reference: US12581252B2, “Substituted pyrrolo[3,4-b]pyridines as PI3K-α inhibitors” (Relay Therapeutics, Inc., priority 2020, dated 2026)
